Data taken from patent US20140163023A1, “DIHYDROPYRROLO PYRIMIDINE DERIVATIVES AS MTOR INHIBITORS” (Cellzome Limited, priority 2011, published 2014).

Legend:
PI3Kα = biological target: T1, PI3Kα (Homo sapiens, UniProt P42336); test: kinobeads assay, PI3Kα; format: binding; details: 1:1 mix of Jurkat and Ramos cell lysates, read-out: Inhibition values (IC50 in μM) as determined in the kinobeads assay, PI3Kα
T1 construct: endogenous in cells; host or cells: Jurkat (ATCC TIB-152, clone E6-1) and Ramos (ATCC CRL-1596), 1:1 lysate mix
T1 sequence (P42336 whole entry): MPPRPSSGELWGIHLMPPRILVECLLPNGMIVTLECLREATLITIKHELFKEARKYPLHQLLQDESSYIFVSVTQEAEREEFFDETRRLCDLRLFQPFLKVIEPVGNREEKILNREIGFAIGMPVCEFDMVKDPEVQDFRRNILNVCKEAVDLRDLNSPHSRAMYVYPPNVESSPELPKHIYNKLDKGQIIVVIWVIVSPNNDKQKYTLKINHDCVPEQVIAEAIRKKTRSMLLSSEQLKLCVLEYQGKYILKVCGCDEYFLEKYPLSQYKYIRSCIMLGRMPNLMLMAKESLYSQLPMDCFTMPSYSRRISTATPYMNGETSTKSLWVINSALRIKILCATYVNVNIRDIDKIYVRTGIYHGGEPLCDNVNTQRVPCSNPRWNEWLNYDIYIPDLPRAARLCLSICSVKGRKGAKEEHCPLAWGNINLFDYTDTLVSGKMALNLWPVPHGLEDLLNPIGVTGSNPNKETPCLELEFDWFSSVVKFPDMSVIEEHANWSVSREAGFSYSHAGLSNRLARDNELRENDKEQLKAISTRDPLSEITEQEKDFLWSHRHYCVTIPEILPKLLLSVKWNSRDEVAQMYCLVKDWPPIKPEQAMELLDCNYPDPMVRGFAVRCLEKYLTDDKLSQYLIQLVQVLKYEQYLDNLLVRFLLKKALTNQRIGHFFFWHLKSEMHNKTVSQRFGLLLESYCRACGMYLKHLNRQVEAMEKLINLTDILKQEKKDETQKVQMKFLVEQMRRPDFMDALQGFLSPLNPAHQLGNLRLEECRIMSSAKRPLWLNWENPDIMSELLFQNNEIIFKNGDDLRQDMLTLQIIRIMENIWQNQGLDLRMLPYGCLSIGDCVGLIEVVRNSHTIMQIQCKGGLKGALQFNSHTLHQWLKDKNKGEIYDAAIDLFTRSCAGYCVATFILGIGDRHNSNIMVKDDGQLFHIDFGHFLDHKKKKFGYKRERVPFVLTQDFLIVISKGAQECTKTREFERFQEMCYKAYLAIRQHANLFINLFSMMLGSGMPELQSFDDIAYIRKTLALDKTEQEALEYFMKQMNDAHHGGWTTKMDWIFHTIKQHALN
T1 sequence (P27986 whole entry partner): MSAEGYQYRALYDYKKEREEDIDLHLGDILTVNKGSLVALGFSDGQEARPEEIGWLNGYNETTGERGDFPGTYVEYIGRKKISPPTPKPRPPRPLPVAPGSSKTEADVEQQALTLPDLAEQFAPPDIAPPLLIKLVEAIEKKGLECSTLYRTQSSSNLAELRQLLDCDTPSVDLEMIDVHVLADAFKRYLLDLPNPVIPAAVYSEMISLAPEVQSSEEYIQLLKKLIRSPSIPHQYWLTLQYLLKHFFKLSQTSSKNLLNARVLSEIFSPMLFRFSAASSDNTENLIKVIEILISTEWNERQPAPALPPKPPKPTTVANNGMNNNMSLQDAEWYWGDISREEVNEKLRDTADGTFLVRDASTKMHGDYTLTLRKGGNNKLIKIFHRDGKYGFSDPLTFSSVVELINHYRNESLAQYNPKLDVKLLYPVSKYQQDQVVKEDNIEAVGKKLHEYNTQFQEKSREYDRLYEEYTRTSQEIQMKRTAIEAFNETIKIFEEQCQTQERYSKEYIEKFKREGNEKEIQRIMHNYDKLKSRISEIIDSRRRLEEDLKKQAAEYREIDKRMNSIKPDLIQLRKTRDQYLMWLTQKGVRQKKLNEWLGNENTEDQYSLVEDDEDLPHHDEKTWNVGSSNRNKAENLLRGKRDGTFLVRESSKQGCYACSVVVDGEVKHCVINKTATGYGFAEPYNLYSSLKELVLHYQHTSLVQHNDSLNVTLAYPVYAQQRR
Method: (§1) The compounds of the present invention as described were tested in the mTOR kinobeads assay as described below. Briefly, test compounds (at various concentrations) and the affinity matrix (1:1 mixture of beads with immobilized phenylthiazole ligand 1 and beads with immobilized phenylmorpholin-chromen ligand; WO 2009/098021) were added to cell lysate aliquots and allowed to bind to the proteins in the lysate sample. After the incubation time the beads with captured proteins were separated from the lysate. Bound proteins were then eluted and the presence of mTOR, PI3Kα, PI3Kβ, PI3Kγ, PI3Kδ and DNA-dependent protein kinase (DNA-PK) was detected and quantified using a specific antibody in a dot blot procedure and the Odyssey infrared detection system. Dose response curves for individual kinases were generated and IC50 values calculated. Kinobeads assays for PI3 kinases (WO-A 2008/015013) and for kinase selectivity profiling (WO 2009/098021) have been previously described.
(§2) Washing of Affinity Matrix
(§3) The affinity matrix was washed two times with 15 ml of 1×DP buffer containing 0.2% NP40 (IGEPAL® CA-630, Sigma, #13021) and then resupended in 5.5 ml of 1×DP buffer containing 0.2% NP40 (10% beads slurry).
(§4) 5×DP buffer: 250 mM Tris-HCl pH 7.4, 25% Glycerol, 7.5 mM MgCl2, 750 mM NaCl, 5 mM Na3VO4, filter the 5×-lysis buffer through 0.22 μm filter and store in aliquots at −80° C. The 5×DP buffer is diluted to 1×DP buffer containing 1 mM DTT and 25 mM NaF.
(§5) Preparation of Test Compounds
(§6) Stock solutions of test compounds were prepared in DMSO. In a 96 well plate 30 μl solution of diluted test compounds at 5 mM in DMSO were prepared. Starting with this solution a 1:3 dilution series (9 steps) was prepared. For control experiments (no test compound) a buffer containing 2% DMSO was used. Compound Pi-103 (Calbiochem catalogue number 528100) served as a positive control.
(§7) Cell Culture and Preparation of Cell Lysates
(§8) Jurkat cells (ATCC catalogue number TIB-152 Jurkat, clone E6-1) and Ramos cells (ATCC number CRL-1596) were grown in 1 litre Spinner flasks (Integra Biosciences, #182101) in suspension in RPMI 1640 medium (Invitrogen, #21875-034) supplemented with 10% Fetal Bovine Serum (Invitrogen) at a density between 0.15×10^6 and 1.2×10^6 cells/ml. Cells were harvested by centrifugation, washed once with 1×PBS buffer (Invitrogen, #14190-094) and cell pellets were frozen in liquid nitrogen and subsequently stored at −80° C.
(§9) Cells were homogenized in a Potter S homogenizer in lysis buffer: 50 mM Tris-HCl, 0.8% NP40, 5% glycerol, 150 mM NaCl, 1.5 mM MgCl2, 25 mM NaF, 1 mM sodium vanadate, 1 mM DTT, pH 7.5. One complete EDTA-free tablet (protease inhibitor cocktail, Roche Diagnostics, 1873580) per 25 ml buffer was added. The material was dounced 10 times using a mechanized POTTER S, transferred to 50 ml falcon tubes, incubated for 30 minutes on ice and spun down for 10 min at 20,000 g at 4° C. (10,000 rpm in Sorvall SLA600, precooled). The supernatant was transferred to an ultracentrifuge (UZ)-polycarbonate tube (Beckmann, 355654) and spun for 1 hour at 100.000 g at 4° C. (33.500 rpm in Ti50.2, precooled). The supernatant was transferred again to a fresh 50 ml falcon tube, the protein concentration was determined by a Bradford assay (BioRad) and samples containing 50 mg of protein per aliquot were prepared. The samples were immediately used for experiments or frozen in liquid nitrogen and stored frozen at −80° C.
(§10) Cell lysate (approximately 50 mg protein per plate) was thawed in a water bath at room temperature and then kept on ice. To the thawed cell lysate 1×DP 0.8% NP40 buffer containing protease inhibitors (1 tablet for 25 ml buffer; EDTA-free protease inhibitor cocktail; Roche Diagnostics 1873580) was added in order to reach a final protein concentration of 5 mg/ml total protein. For the kinobeads experiment a 1:1 mix of Jurkat and Ramos cell lysates was used. The diluted cell lysate was stored on ice. […]

PI3Kγ = biological target: T2, PI3Kγ (Homo sapiens, UniProt P48736); test: kinobeads assay, PI3Kγ; format: binding; details: 1:1 mix of Jurkat and Ramos cell lysates, read-out: Inhibition values (IC50 in μM) as determined in the kinobeads assay, PI3Kγ
T2 construct: endogenous in cells; host or cells: Jurkat (ATCC TIB-152, clone E6-1) and Ramos (ATCC CRL-1596), 1:1 lysate mix
T2 sequence (P48736 whole entry): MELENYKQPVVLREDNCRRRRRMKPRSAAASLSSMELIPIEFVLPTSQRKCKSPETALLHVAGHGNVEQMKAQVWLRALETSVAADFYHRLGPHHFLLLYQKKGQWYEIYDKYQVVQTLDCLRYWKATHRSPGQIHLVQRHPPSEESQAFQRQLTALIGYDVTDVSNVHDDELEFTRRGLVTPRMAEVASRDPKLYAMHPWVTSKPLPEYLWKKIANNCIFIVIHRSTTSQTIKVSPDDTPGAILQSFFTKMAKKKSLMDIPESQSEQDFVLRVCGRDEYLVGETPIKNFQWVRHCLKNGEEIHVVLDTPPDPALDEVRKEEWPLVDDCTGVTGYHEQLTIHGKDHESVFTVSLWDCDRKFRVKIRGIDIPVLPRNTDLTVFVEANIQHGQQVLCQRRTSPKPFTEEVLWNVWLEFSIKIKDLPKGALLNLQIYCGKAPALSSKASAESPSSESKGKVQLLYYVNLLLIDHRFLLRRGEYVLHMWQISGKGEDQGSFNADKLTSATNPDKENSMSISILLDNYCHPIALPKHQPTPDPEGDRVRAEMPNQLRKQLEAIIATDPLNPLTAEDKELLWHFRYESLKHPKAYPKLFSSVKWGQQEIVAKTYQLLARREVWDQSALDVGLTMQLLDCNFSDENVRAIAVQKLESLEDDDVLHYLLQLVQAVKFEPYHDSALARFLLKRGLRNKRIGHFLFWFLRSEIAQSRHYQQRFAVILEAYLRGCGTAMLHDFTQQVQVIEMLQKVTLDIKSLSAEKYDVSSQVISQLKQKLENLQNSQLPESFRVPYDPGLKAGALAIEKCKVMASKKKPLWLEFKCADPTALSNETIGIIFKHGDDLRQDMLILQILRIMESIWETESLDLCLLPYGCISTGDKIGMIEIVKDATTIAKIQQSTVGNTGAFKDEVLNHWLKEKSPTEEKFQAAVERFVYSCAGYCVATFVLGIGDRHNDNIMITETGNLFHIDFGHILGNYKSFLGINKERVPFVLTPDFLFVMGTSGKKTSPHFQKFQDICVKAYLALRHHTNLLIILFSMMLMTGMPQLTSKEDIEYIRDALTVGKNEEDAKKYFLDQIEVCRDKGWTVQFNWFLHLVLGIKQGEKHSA
Method: as §1, §2, §3, §4, §5, §6, §7, §8, §9, §10

PI3Kβ = biological target: T3, PI3Kβ (Homo sapiens, UniProt P42338); test: kinobeads assay, PI3Kβ; format: binding; details: 1:1 mix of Jurkat and Ramos cell lysates, read-out: Inhibition values (IC50 in μM) as determined in the kinobeads assay, PI3Kβ
T3 construct: endogenous in cells; host or cells: Jurkat (ATCC TIB-152, clone E6-1) and Ramos (ATCC CRL-1596), 1:1 lysate mix
T3 sequence (P42338 whole entry): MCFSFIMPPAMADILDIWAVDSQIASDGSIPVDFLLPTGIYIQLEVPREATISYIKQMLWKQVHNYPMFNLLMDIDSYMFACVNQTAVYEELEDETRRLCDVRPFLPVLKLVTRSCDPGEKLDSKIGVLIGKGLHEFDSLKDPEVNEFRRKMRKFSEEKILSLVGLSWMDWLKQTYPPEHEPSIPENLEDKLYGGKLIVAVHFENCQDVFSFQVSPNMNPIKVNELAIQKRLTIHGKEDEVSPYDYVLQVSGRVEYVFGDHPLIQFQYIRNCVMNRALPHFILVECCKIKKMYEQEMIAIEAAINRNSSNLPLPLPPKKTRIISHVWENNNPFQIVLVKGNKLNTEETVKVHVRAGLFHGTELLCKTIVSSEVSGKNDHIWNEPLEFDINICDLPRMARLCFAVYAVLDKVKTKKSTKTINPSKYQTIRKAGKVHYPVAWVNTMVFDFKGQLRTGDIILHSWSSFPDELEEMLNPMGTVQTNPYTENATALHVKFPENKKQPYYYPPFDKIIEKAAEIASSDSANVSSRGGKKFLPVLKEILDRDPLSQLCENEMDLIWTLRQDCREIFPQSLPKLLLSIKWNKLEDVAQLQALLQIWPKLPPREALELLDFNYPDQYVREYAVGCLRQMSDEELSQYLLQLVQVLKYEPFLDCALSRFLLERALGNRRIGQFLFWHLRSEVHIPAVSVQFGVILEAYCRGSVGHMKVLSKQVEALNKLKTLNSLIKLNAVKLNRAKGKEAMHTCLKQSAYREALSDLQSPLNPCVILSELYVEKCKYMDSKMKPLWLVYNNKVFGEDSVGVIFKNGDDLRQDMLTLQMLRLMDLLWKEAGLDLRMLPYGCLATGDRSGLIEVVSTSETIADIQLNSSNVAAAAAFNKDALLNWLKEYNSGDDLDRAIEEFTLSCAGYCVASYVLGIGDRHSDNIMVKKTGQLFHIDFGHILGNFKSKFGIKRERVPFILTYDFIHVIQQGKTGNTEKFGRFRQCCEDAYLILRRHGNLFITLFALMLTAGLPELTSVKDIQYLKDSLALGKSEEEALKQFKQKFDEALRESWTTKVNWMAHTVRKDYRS
T3 sequence (P27986 whole entry partner): as the sequence (P27986 whole entry partner) above
Method: as §1, §2, §3, §4, §5, §6, §7, §8, §9, §10

[1] = biological target: T4, DNA-dependent protein kinase (DNA-PK) (Homo sapiens, UniProt P78527); test: kinobeads assay, DNA-PK; format: binding; details: 1:1 mix of Jurkat and Ramos cell lysates, read-out: Inhibition values (IC50 in μM) as determined in the kinobeads assay, DNA-PK
T4 construct: endogenous in cells; host or cells: Jurkat (ATCC TIB-152, clone E6-1) and Ramos (ATCC CRL-1596), 1:1 lysate mix
Method: as §1, §2, §3, §4, §5, §6, §7, §8, §9, §10

mTOR = biological target: T5, mTOR (Homo sapiens, UniProt P42345); test: mTOR kinobeads assay (competition binding in cell lysate, dot blot detection); details: 1:1 mix of Jurkat and Ramos cell lysates, read-out: Inhibition values (IC50 in μM) as determined in the kinobeads assay, mTor
T5 construct: endogenous in cells; host or cells: Jurkat (ATCC TIB-152, clone E6-1) and Ramos (ATCC CRL-1596), 1:1 lysate mix
Method: Determination of the Effect of the Compounds According to the Invention on mTOR
as §1, §2, §3, §4, §5, §6, §7, §8, §9
as §10, with “used.” for “used. The diluted cell lysate was stored on ice.”

PI3Kδ = biological target: T6, PI3Kδ (Homo sapiens, UniProt O00329); test: kinobeads assay, PI3Kδ; format: binding; details: 1:1 mix of Jurkat and Ramos cell lysates, read-out: Inhibition values (IC50 in μM) as determined in the kinobeads assay, PI3Kδ
T6 construct: endogenous in cells; host or cells: Jurkat (ATCC TIB-152, clone E6-1) and Ramos (ATCC CRL-1596), 1:1 lysate mix
T6 sequence (O00329 whole entry): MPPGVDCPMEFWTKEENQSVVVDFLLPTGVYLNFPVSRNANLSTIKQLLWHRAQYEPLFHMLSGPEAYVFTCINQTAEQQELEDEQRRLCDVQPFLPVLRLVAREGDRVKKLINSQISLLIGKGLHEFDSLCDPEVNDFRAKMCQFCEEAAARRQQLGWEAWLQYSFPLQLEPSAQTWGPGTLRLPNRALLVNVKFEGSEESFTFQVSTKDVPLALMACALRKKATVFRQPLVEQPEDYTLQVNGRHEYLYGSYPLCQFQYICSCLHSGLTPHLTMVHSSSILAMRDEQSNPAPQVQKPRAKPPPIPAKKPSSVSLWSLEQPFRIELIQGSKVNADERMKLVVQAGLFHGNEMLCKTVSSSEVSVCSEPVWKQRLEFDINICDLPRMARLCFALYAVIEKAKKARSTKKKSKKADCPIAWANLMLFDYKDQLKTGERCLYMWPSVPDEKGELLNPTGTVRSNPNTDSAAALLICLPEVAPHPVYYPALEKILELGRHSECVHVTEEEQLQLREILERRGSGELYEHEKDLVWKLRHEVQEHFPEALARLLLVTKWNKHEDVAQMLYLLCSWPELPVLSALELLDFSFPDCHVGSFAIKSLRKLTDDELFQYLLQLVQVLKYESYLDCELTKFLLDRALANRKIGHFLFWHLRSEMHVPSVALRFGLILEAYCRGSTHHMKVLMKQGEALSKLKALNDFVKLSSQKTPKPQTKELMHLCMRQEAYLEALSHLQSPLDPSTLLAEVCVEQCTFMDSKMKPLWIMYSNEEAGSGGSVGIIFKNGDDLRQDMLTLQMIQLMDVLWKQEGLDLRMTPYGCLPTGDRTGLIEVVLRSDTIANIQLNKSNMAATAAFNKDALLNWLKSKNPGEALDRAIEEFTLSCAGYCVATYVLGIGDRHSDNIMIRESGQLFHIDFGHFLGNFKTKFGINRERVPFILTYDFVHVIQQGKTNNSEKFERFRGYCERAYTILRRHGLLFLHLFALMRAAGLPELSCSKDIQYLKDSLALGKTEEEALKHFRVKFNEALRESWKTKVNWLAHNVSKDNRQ
T6 sequence (P27986 whole entry partner): as the sequence (P27986 whole entry partner) above
Method: as §1, §2, §3, §4, §5, §6, §7, §8, §9, §10

Compound	IC50 (PI3Kα)	IC50 (PI3Kγ)	IC50 (PI3Kβ)	IC50 [1]	IC50 (mTOR)	IC50 (PI3Kδ)
CCNC(=O)Nc1ccc(-c2nc(N3CCOCC3)nc3c2CNC3)cc1 [Example 4, 1-ethyl-3-(4-(2-morpholino-6,7-dihydro-5H-pyrrolo[3,4-d]pyrimidin-4-yl)phenyl)urea]	1 to 10 µM	10 to 100 µM	10 to 100 µM	10 to 100 µM	0.1 to 1 µM	10 to 100 µM
CCNC(=O)Nc1ccc(-c2nc(N3CCOCC3)nc3c2CN(C(=O)OCC)C3)cc1 [Example 7, ethyl 4-(4-(3-ethylureido)phenyl)-2-morpholino-5H-pyrrolo[3,4-d]pyrimidine-6(7H)-carboxylate]	> 100 µM	> 100 µM	> 100 µM	> 100 µM	1 to 10 µM	> 100 µM
CCNC(=O)Nc1ccc(-c2nc(N3CCOC[C@@H]3C)nc3c2CN(C(=O)OCC)C3)cc1 [Example 8, (S)-ethyl 4-(4-(3-ethylureido)phenyl)-2-(3-methylmorpholino)-5H-pyrrolo[3,4-d]pyrimidine-6(7H)-carboxylate]	> 100 µM	> 100 µM	> 100 µM	> 100 µM	10 to 100 µM	> 100 µM
C[C@H]1COCCN1c1nc2c(c(-c3ccc(NC(=O)NC4CC4)cc3)n1)CN(C)C2 [Example 11, (S)-1-cyclopropyl-3-(4-(6-methyl-2-(3-methylmorpholino)-6,7-dihydro-5H-pyrrolo[3,4-d]pyrimidin-4-yl)phenyl)urea]	10 to 100 µM	10 to 100 µM	10 to 100 µM	10 to 100 µM	0.1 to 1 µM	10 to 100 µM
CC(=O)N1Cc2nc(N3CCOC[C@@H]3C)nc(-c3ccc(NC(=O)NC4CC4)cc3)c2C1 [Example 12, (S)-1-(4-(6-acetyl-2-(3-methylmorpholino)-6,7-dihydro-5H-pyrrolo[3,4-d]pyrimidin-4-yl)phenyl)-3-cyclopropylurea]	10 to 100 µM	> 100 µM	10 to 100 µM	> 100 µM	1 to 10 µM	10 to 100 µM
CC(C)N1Cc2nc(N3CCOC[C@@H]3C)nc(-c3ccc(NC(=O)NC4CC4)cc3)c2C1 [Example 13, (S)-1-cyclopropyl-3-(4-(6-isopropyl-2-(3-methylmorpholino)-6,7-dihydro-5H-pyrrolo[3,4-d]pyrimidin-4-yl)phenyl)urea]	> 100 µM	> 100 µM	> 100 µM	> 100 µM	0.1 to 1 µM	> 100 µM
C[C@H]1COCCN1c1nc2c(c(-c3ccc(NC(=O)NC4CC4)cc3)n1)CN(C1CC1)C2 [Example 14, (S)-1-cyclopropyl-3-(4-(6-cyclopropyl-2-(3-methylmorpholino)-6,7-dihydro-5H-pyrrolo[3,4-d]pyrimidin-4-yl)phenyl)urea]	> 100 µM	> 100 µM	> 100 µM	> 100 µM	1 to 10 µM	> 100 µM

Continued, values first:

IC50 (PI3Kα)	IC50 (PI3Kγ)	IC50 (PI3Kβ)	IC50 [1]	IC50 (mTOR)	IC50 (PI3Kδ)	Compound
10 to 100 µM	10 to 100 µM	10 to 100 µM	> 100 µM	0.1 to 1 µM	10 to 100 µM	C[C@H]1COCCN1c1nc2c(c(-c3ccc(NC(=O)NC4CC4)cc3)n1)CNC2 [Example 1, (S)-1-cyclopropyl-3-(4-(2-(3-methylmorpholino)-6,7-dihydro-5H-pyrrolo[3,4-d]pyrimidin-4-yl)phenyl)urea]
10 to 100 µM	10 to 100 µM	10 to 100 µM	10 to 100 µM	0.1 to 1 µM	10 to 100 µM	CCNC(=O)Nc1ccc(-c2nc(N3CCOC[C@@H]3C)nc3c2CNC3)cc1 [Example 2, (S)-1-ethyl-3-(4-(2-(3-methylmorpholino)-6,7-dihydro-5H-pyrrolo[3,4-d]pyrimidin-4-yl)phenyl)urea]
10 to 100 µM	10 to 100 µM	10 to 100 µM	> 100 µM	0.1 to 1 µM	10 to 100 µM	CCNC(=O)Nc1ccc(-c2nc(N3CCOC[C@@H]3C)nc3c2CN(C=O)C3)cc1 [Example 3, (S)-1-ethyl-3-(4-(6-formyl-2-(3-methylmorpholino)-6,7-dihydro-5H-pyrrolo[3,4-d]pyrimidin-4-yl)phenyl)urea]
10 to 100 µM	10 to 100 µM	10 to 100 µM	10 to 100 µM	0.1 to 1 µM	10 to 100 µM	O=C(Nc1ccc(-c2nc(N3CCOCC3)nc3c2CNC3)cc1)NC1CC1 [Example 5, 1-cyclopropyl-3-(4-(2-morpholino-6,7-dihydro-5H-pyrrolo[3,4-d]pyrimidin-4-yl)phenyl)urea]
1 to 10 µM	1 to 10 µM	1 to 10 µM	10 to 100 µM	0.1 to 1 µM	1 to 10 µM	NC(=O)Nc1ccc(-c2nc(N3CCOCC3)nc3c2CNC3)cc1 [Example 6, 1-(4-(2-morpholino-6,7-dihydro-5H-pyrrolo[3,4-d]pyrimidin-4-yl)phenyl)urea]
> 100 µM	> 100 µM	> 100 µM	> 100 µM	1 to 10 µM	> 100 µM	CCOC(=O)N1Cc2nc(N3CCOC[C@@H]3C)nc(-c3ccc(NC(=O)NC4CC4)cc3)c2C1 [Example 9, (S)-ethyl 4-(4-(3-cyclopropylureido)phenyl)-2-(3-methylmorpholino)-5H-pyrrolo[3,4-d]pyrimidine-6(7H)-carboxylate]
10 to 100 µM	> 100 µM	> 100 µM	> 100 µM	10 to 100 µM	> 100 µM	CCOC(=O)Nc1ccc(-c2nc(N3CCOC[C@@H]3C)nc3c2CNC3)cc1 [Example 10, (S)-ethyl (4-(2-(3-methylmorpholino)-6,7-dihydro-5H-pyrrolo[3,4-d]pyrimidin-4-yl)phenyl)carbamate]
